Drawing on ChEMBL document CHEMBL3991601, “The target landscape of clinical kinase drugs” (Science, 2017), this text covers Kd for five compounds.

Experiment [1] has as its target Choline-phosphate cytidylyltransferase A (Homo sapiens, UniProt P49585).
For experiment [2], the target named is Cyclin-dependent kinase 17 (Homo sapiens, UniProt Q00537).
For experiment [3], the target named is T1, Mitogen-activated protein kinase kinase kinase 3 (Homo sapiens, UniProt Q99759).
T1 sequence (Q99759 whole entry): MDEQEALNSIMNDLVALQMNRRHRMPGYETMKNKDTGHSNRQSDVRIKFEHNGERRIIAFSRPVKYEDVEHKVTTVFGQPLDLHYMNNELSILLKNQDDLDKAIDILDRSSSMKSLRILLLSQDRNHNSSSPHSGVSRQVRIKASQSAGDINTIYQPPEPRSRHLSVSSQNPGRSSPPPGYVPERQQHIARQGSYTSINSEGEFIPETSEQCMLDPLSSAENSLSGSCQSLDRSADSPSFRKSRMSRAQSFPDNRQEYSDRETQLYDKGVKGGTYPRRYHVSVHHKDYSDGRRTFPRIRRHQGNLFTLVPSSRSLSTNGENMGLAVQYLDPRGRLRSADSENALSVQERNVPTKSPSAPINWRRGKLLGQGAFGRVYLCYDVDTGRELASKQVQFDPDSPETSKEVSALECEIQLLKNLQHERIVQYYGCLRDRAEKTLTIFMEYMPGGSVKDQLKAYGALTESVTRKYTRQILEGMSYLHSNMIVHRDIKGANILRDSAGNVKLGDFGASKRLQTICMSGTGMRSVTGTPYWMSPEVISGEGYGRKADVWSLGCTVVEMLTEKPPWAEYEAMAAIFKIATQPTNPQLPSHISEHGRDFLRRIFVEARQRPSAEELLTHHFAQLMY

Experiment [4] has as its target Mitogen-activated protein kinase kinase kinase 1 (Homo sapiens, UniProt Q13233).
Experiment [5] deals with High affinity nerve growth factor receptor (Homo sapiens, UniProt P04629).
High affinity nerve growth factor receptor, sequence (P04629 whole entry): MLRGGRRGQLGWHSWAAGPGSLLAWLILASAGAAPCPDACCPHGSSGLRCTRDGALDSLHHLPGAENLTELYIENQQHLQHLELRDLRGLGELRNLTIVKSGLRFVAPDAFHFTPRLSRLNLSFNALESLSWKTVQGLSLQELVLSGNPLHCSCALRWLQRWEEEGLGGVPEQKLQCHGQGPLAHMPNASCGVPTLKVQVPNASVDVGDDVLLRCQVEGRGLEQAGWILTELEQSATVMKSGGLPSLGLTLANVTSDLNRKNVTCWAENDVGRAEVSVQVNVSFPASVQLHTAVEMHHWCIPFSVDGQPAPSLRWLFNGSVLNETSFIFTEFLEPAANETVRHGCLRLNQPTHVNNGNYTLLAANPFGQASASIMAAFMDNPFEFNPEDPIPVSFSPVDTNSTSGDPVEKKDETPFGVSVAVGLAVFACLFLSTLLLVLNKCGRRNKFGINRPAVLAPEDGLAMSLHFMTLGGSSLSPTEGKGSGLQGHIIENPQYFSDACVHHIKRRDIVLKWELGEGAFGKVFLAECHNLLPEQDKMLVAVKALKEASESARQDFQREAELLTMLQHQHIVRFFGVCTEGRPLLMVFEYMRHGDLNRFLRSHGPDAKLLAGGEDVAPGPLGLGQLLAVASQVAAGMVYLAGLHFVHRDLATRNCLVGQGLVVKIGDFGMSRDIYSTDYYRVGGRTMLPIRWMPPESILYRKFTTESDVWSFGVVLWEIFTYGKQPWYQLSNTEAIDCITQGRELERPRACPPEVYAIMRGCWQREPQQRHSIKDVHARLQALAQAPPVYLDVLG
Experiment [6] has as its target Protein kinase C theta type (Homo sapiens, UniProt Q04759).
Experiment [7] addresses T2, Serine/threonine-protein kinase 4 (Homo sapiens, UniProt Q13043).
T2 sequence (Q13043 whole entry): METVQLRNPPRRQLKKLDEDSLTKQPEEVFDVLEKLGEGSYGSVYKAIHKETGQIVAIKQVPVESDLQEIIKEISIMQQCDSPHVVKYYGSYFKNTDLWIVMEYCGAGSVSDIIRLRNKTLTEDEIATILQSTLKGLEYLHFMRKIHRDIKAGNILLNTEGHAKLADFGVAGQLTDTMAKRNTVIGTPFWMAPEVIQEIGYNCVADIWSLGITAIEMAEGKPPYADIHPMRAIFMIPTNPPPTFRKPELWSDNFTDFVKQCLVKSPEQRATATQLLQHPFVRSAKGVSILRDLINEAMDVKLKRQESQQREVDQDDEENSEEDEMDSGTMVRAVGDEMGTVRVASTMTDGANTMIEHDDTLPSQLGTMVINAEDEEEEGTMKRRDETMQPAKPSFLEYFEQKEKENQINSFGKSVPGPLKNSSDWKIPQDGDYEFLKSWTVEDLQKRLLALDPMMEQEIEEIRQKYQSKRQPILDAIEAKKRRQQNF

Experiment [8] has as its target Uncharacterized aarF domain-containing protein kinase 5 (Homo sapiens, UniProt Q3MIX3).
Experiment [9] concerns the target T3, Receptor-type tyrosine-protein kinase FLT3 (Homo sapiens, UniProt P36888).
T3 sequence (P36888 whole entry): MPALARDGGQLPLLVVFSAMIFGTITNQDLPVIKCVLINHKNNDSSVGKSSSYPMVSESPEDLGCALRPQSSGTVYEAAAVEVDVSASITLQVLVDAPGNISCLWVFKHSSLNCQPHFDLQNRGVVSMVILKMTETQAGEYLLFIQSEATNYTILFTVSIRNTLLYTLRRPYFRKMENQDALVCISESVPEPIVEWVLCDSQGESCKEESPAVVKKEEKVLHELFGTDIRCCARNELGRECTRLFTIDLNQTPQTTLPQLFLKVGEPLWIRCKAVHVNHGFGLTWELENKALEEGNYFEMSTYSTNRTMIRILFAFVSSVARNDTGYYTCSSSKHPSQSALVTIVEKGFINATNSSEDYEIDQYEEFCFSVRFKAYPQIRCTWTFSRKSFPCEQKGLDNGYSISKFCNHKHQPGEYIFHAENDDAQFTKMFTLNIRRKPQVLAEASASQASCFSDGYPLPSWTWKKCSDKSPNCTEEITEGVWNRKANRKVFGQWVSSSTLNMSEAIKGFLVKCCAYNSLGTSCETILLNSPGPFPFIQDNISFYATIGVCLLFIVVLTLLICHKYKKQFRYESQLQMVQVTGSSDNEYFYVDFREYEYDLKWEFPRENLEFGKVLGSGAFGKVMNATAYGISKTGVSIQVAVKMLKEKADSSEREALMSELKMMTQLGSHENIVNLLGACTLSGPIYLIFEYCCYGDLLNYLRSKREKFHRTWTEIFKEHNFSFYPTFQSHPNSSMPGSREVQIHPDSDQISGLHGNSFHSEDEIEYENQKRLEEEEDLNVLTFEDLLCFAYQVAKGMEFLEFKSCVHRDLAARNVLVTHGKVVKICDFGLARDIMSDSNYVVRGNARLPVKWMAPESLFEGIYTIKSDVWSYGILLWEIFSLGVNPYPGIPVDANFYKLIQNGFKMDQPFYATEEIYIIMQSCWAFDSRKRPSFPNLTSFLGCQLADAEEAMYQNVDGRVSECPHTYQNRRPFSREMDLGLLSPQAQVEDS

Experiment [10] deals with Dual specificity protein kinase CLK3 (Homo sapiens, UniProt P49761). Format: subcellular, K-562, COLO 205, SK-N-BE(2) and MV-4-11, Cell lysate. The settings on record: read-out: Kd apparent.
Dual specificity protein kinase CLK3, sequence (P49761 whole entry): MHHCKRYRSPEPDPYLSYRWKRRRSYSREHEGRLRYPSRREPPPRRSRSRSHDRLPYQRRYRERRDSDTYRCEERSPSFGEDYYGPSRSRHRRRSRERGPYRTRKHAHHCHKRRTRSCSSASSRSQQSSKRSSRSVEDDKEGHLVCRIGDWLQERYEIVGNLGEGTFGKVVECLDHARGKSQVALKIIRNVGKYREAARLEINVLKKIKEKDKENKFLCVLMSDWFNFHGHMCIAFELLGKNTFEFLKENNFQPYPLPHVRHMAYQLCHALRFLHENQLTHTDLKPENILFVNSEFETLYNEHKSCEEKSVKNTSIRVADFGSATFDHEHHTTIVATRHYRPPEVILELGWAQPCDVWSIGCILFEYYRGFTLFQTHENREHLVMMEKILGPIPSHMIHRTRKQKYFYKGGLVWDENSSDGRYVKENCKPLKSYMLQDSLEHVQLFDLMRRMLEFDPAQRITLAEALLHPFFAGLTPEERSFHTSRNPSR
Experiment [11] concerns the target Ephrin type-A receptor 2 (Homo sapiens, UniProt P29317).
For experiment [12], the target named is Rho-associated protein kinase 1 (Homo sapiens, UniProt Q13464).
The target in experiment [13] is Serine/threonine-protein kinase pim-2 (Homo sapiens, UniProt Q9P1W9).
In experiment [14] the target is Hepatocyte growth factor receptor (Homo sapiens, UniProt P08581).
The target of experiment [15] is Dual specificity mitogen-activated protein kinase kinase 1 (Homo sapiens, UniProt Q02750).
Dual specificity mitogen-activated protein kinase kinase 1, sequence (Q02750 whole entry): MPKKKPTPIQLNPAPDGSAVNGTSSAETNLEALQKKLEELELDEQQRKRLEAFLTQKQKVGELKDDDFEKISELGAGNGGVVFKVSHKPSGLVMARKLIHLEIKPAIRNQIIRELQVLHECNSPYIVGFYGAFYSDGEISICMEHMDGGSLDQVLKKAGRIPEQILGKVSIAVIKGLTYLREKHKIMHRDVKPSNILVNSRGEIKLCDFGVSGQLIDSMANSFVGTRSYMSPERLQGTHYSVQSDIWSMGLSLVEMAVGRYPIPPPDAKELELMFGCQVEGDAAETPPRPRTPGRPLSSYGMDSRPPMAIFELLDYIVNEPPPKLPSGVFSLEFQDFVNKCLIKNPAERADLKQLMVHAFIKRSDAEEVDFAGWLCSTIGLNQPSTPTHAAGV

Calls of active or inactive are those of the source. For most assays here, no stated cut-off is given here; in the data, actives have a measured Kd and inactives only a lower limit.

Cyclin-dependent kinase 17, sequence (Q00537 whole entry): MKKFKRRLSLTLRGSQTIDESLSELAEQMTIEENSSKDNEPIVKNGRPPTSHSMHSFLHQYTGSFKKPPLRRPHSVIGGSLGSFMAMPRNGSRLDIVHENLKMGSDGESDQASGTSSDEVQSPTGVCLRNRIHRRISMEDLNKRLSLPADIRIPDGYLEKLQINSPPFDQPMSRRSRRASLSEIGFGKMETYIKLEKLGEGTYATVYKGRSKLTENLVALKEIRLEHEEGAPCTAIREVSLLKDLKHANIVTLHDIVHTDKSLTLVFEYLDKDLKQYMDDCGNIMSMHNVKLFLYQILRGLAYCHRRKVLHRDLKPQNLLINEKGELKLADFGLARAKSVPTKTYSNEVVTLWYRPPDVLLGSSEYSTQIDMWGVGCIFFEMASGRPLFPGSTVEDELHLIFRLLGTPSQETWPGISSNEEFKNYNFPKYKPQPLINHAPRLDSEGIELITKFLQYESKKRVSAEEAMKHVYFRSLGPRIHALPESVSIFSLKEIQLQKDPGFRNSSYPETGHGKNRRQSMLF
Protein kinase C theta type, sequence (Q04759 whole entry): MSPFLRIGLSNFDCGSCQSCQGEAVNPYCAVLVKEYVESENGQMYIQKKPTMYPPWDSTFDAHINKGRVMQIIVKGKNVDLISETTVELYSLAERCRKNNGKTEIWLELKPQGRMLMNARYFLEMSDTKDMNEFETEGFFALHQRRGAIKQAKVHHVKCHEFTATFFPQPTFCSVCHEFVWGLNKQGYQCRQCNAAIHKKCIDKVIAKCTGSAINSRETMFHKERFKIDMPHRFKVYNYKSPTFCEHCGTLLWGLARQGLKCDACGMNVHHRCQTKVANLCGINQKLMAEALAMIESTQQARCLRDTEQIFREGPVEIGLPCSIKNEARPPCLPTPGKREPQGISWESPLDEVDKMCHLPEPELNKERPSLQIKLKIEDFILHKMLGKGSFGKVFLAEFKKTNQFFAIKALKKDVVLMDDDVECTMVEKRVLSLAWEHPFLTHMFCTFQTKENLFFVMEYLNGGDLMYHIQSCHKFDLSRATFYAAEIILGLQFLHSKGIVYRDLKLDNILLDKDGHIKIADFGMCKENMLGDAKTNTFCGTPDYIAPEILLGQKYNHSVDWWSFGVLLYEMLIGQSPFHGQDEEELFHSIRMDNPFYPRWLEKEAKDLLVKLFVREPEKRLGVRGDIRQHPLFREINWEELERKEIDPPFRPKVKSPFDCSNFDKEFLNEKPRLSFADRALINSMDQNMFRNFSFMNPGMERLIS
Mitogen-activated protein kinase kinase kinase 1, sequence (Q13233 whole entry): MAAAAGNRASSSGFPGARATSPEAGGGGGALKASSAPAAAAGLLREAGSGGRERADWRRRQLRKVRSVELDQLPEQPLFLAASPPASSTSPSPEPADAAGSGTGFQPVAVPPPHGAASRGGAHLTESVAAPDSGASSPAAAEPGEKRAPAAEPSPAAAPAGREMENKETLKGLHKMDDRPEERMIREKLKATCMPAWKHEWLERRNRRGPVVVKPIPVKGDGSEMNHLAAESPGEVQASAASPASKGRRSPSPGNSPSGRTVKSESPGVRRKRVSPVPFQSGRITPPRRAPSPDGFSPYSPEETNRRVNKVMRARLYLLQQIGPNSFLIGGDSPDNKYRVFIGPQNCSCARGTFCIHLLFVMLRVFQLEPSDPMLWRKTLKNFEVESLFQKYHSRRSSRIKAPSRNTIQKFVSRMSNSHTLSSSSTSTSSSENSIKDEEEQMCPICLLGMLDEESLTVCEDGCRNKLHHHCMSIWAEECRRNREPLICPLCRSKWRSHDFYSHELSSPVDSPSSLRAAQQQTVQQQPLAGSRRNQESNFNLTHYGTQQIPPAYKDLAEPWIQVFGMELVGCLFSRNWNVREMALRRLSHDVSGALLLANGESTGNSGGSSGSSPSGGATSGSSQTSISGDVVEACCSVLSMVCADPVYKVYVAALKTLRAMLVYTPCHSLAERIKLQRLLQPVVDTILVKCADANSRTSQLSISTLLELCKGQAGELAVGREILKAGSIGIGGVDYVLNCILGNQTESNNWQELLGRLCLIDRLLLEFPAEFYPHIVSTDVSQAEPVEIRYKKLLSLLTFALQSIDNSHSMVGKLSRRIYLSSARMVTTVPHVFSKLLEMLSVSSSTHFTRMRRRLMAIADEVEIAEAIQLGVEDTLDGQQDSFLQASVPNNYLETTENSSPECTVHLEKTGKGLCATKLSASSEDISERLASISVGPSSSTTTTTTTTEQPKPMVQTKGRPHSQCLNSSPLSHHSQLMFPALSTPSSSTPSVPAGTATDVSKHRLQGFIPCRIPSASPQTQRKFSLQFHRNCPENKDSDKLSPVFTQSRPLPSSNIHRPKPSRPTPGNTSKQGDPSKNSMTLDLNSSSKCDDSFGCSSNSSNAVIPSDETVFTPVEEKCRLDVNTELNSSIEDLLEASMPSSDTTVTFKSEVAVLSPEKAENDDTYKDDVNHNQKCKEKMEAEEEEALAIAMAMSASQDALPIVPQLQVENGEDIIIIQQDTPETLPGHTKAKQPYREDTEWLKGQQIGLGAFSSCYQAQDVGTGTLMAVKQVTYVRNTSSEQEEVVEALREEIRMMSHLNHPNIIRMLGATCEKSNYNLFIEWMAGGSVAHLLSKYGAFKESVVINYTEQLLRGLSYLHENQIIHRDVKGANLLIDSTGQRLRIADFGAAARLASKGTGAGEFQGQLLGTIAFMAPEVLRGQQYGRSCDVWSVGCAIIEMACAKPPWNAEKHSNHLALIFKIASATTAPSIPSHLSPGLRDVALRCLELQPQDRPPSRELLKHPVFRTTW
Uncharacterized aarF domain-containing protein kinase 5, sequence (Q3MIX3 whole entry, the tested form may be a part): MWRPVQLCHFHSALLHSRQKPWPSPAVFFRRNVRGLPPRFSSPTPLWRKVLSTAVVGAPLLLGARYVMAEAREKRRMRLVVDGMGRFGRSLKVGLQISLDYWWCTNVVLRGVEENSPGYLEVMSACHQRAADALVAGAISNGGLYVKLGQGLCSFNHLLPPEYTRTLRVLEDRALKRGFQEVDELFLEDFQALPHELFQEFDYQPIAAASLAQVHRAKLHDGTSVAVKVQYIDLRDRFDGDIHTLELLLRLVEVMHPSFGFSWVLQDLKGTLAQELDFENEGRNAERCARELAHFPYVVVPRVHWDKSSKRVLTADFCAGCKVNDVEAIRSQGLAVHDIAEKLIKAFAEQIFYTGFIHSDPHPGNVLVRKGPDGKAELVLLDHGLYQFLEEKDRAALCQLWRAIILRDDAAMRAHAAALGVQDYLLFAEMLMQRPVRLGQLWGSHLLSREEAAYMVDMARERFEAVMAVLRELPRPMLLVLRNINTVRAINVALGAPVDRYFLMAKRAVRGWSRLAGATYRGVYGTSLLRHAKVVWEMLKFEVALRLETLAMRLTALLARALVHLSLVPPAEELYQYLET

For `C#Cc1cccc(Nc2ncnc3cc4c(cc23)OCCOCCOCCO4)c1` [ICOTINIB], the Kd is > 30 µM (inactive) in experiment [1]; > 30 µM (inactive) in experiment [2]; > 30 µM (inactive) in experiment [3]; 4.13 µM (active) in experiment [4]; > 30 µM (inactive) in experiment [5]; > 30 µM (inactive) in experiment [6]. Further, the Kd in [7], in experiment [8], in experiment [9], in experiment [10], in experiment [11] and in experiment [12] was > 30 µM (inactive) each time. Moreover, the Kd in experiment [13], in experiment [14] and in experiment [15] was > 30 µM (inactive) each time.
`O=C(Nc1ccc(OC(F)(F)F)cc1)c1sccc1NCc1ccnc2ccccc12` [OSI-930]: the Kd in experiment [1], in experiment [2], in experiment [3], in experiment [4], in experiment [5] and in [6] was > 30 µM (inactive) throughout. For the same compound, the Kd in experiment [7], in experiment [8], in [9], in [10], in [11] and in experiment [12] was > 30 µM (inactive) each time. The Kd in [13], in [14] and in [15] was > 30 µM (inactive) throughout.
For `Cn1c(=O)c(F)c(Nc2ccc(I)cc2F)c2c(=O)n(C[C@@H](O)CO)cnc21` [TAK-733], the Kd in experiment [1], in [2], in [3], in experiment [4], in experiment [5] and in experiment [6] was > 30 µM (inactive) each time. Further, the Kd in experiment [7], in experiment [8], in [9], in [10], in [11] and in [12] was > 30 µM (inactive) in each case. Also, the Kd in experiment [13] is > 30 µM (inactive); in [14], > 30 µM (inactive); in experiment [15], 0.021 µM (active).
For the compound `CCc1cc2c(cc1N1CCC(N3CCOCC3)CC1)C(C)(C)c1[nH]c3cc(C#N)ccc3c1C2=O` [ALECTINIB], the Kd in [1], in [2], in experiment [3], in experiment [4], in experiment [5] and in experiment [6] was > 30 µM (inactive) throughout. In addition, the Kd in [7] is > 30 µM (inactive); in experiment [8], > 30 µM (inactive); in experiment [9] it was > 30 µM (inactive); in experiment [10], 1.4 µM (active); in experiment [11] it was > 30 µM (inactive); in [12], > 30 µM (inactive). Besides, the Kd in [13], in experiment [14] and in experiment [15] was > 30 µM (inactive) each time.
As to `O=C(NOC[C@H](O)CO)c1ccc(F)c(F)c1Nc1ccc(I)cc1F` [MIRDAMETINIB], the Kd in experiment [1], in experiment [2], in experiment [3], in [4], in experiment [5] and in experiment [6] was > 30 µM (inactive) in each case. The Kd in [7], in [8], in [9], in [10], in experiment [11] and in experiment [12] was > 30 µM (inactive) throughout. For the same compound, the Kd in experiment [13] and in [14] was > 30 µM (inactive) throughout.
